Experimental data taken from PubChem BioAssay AID248 (DTP/NCI, 2004).
Where “and” joins values, the source holds several entries; their conditions need not be identical. Identical values can stand only once. Toxic doses and inconclusive results are not listed. Cut-off read from the data, not from the text of the source: active = T/C of 150% or more; inactive = T/C below 125%.

System: L1210 leukemia ip in BDF1 mice, survival T/C
Assay: NCI In Vivo Anticancer Drug Screen. Data for tumor model L1210 Leukemia (intraperitoneal) in B6D2F1 (BDF1) mice
Conditions: endpoint: mean survival time, higher = longer survival
Summary of the method: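 Each compound was tested against a transplantable tumor grown in mice. The endpoint was survival, with treated animals benchmarked against vehicle controls as a simple ratio.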

[1] = dose: 100.0 mg/kg/injection, schedule: Q04DX003 (ip), vehicle: Klucel (hydroxypropylcellulose) (HPC)
[2] = dose: 200.0 mg/kg/injection, schedule: Q04DX003 (ip), vehicle: Klucel (hydroxypropylcellulose) (HPC)
[3] = dose: 400.0 mg/kg/injection, schedule: Q04DX003 (ip), vehicle: Klucel (hydroxypropylcellulose) (HPC)
[4] = dose: 100.0 mg/kg/injection, schedule: Q01DX009 (ip), vehicle: saline with Tween-80
[5] = dose: 100.0 mg/kg/injection, schedule: Q04DX002 (ip), vehicle: saline with Tween-80
[6] = dose: 200.0 mg/kg/injection, schedule: Q01DX009 (ip), vehicle: saline with Tween-80
[7] = dose: 200.0 mg/kg/injection, schedule: Q04DX002 (ip), vehicle: saline with Tween-80
[8] = dose: 100.0 mg/kg/injection, schedule: Q01DX001 (ip), vehicle: saline
[9] = dose: 200.0 mg/kg/injection, schedule: Q01DX001 (ip), vehicle: saline
[10] = dose: 400.0 mg/kg/injection, schedule: Q01DX001 (ip), vehicle: saline
[11] = dose: 400.0 mg/kg/injection, schedule: Q04DX002 (ip), vehicle: saline with Tween-80
[12] = dose: 25.0 mg/kg/injection, schedule: Q04DX002 (ip), vehicle: saline with Tween-80
[13] = dose: 50.0 mg/kg/injection, schedule: Q04DX002 (ip), vehicle: saline with Tween-80

Measured: T/C

C=CCOP(=O)(OCC=C)c1ccccc1
inactive: dose: 55.0 mg/kg/injection, schedule: Q01DX Z (ip), vehicle: methylcellulose (MC) 89 % of control | dose: 83.0 mg/kg/injection, schedule: Q01DX Z (ip), vehicle: methylcellulose (MC) 98 % of control | dose: 125.0 mg/kg/injection, schedule: Q01DX Z (ip), vehicle: methylcellulose (MC) 93 % of control

CCCCCCCCCCCCCCCC(=O)Nc1ccc(C(C)=O)cc1
inactive: [1] 91 % of control | [2] 88 % of control | [3] 95 % of control

N#CCCn1c(=O)n(CCC#N)c(=O)n(CCC#N)c1=O
inactive: dose: 100.0 mg/kg/injection, schedule: Q04DX002 (ip), vehicle: Klucel (hydroxypropylcellulose) (HPC) 104 % of control | dose: 200.0 mg/kg/injection, schedule: Q04DX002 (ip), vehicle: Klucel (hydroxypropylcellulose) (HPC) 97 % of control | dose: 400.0 mg/kg/injection, schedule: Q04DX002 (ip), vehicle: Klucel (hydroxypropylcellulose) (HPC) 93 % of control

O=C(O)CCCc1cc(O)c2c(c1O)C(=O)c1ccccc1C2=O
inactive: dose: 100.0 mg/kg/injection, schedule: Q01DX001 (ip), vehicle: saline sonified 98 % of control | dose: 200.0 mg/kg/injection, schedule: Q01DX001 (ip), vehicle: saline sonified 102 % of control | dose: 400.0 mg/kg/injection, schedule: Q01DX001 (ip), vehicle: saline sonified 118 % of control

CN(C)c1ccc(-c2cc(C(=O)O)c3cc4ccccc4cc3n2)cc1
inactive: dose: 50.0 mg/kg/injection, schedule: Q01DX009 (ip), vehicle: saline with Tween-80 91 % of control | [4] 96 % of control | [5] 92 % of control | [6] 88 % of control | [7] 92 % of control

O=S(=O)(Cc1ccccc1)C(Cl)c1ccccc1 (stereo unspecified)
inactive: [8] 115 % of control | [9] 101 % of control | [10] 89 % of control

O=C(NCCF)NC1C(O)OC(CO)C(O)C1O (stereo unspecified)
inactive: [8] 102 % of control | [9] 101 % of control | [10] 98 % of control

O=C1c2ccccc2C(=O)N1NS(=O)c1ccccc1 (stereo unspecified)
inactive: [5] 93 % of control | [7] 104 % of control | [11] 101 % of control

CC(=O)Nc1cc(C/C(N)=N/O)cc(NC(C)=O)c1
inactive: [4] 97 % of control | [6] 92 % of control | dose: 400.0 mg/kg/injection, schedule: Q01DX009 (ip), vehicle: saline with Tween-80 100 % of control

CCc1c(CO)cnc(C)c1OP(=O)(O)O
inactive: dose: 100.0 mg/kg/injection, schedule: Q01DX001 (ip), vehicle: carboxymethylcellulose (CMC) 100 % of control | dose: 200.0 mg/kg/injection, schedule: Q01DX001 (ip), vehicle: carboxymethylcellulose (CMC) 96 % of control | dose: 400.0 mg/kg/injection, schedule: Q01DX001 (ip), vehicle: carboxymethylcellulose (CMC) 102 % of control

Nc1nc2[nH]c(=O)cnc2c(=O)[nH]1
inactive: dose: 50.0 mg/kg/injection, schedule: Q01DX009 (ip), vehicle: Klucel (hydroxypropylcellulose) (HPC) 102 % of control | dose: 50.0 mg/kg/injection, schedule: Q04DX003 (ip), vehicle: Klucel (hydroxypropylcellulose) (HPC) 107 % of control | dose: 100.0 mg/kg/injection, schedule: Q01DX009 (ip), vehicle: Klucel (hydroxypropylcellulose) (HPC) 111 % of control | [1] 110 % of control | dose: 200.0 mg/kg/injection, schedule: Q01DX009 (ip), vehicle: Klucel (hydroxypropylcellulose) (HPC) 107 % of control | [2] 102 % of control | dose: 400.0 mg/kg/injection, schedule: Q01DX009 (ip), vehicle: Klucel (hydroxypropylcellulose) (HPC) 95 % of control | [3] 104 % of control

CCOC1CC2(c3ccccc3)OC(=O)OC12c1ccccc1 (stereo unspecified)
inactive: [12] 115 % of control | [13] 101 % of control | [5] 115 % of control

C/C(CC(=O)Nc1ccccn1)=N\c1ccccn1
inactive: [8] 98 % of control | [9] 92 % of control | [10] 88 % of control

CC(C)C(C(=O)O)N1C(=O)C2C3CCC(O3)C2C1=O (stereo unspecified)
inactive: dose: 100.0 mg/kg/injection, schedule: Q04DX003 (ip), vehicle: saline 98 % of control and 102 % of control | dose: 200.0 mg/kg/injection, schedule: Q04DX003 (ip), vehicle: saline 98 % of control and 89 % of control | dose: 400.0 mg/kg/injection, schedule: Q04DX003 (ip), vehicle: saline 98 % of control and 103 % of control

O=C(O)COc1ccc(Cl)cc1CC(=O)O
inactive: [13] 99 % of control | [5] 100 % of control and 105 % of control | [7] 99 % of control and 103 % of control | [11] 103 % of control

CNC(CCC(=O)O)C(=O)O (stereo unspecified)
inactive: [8] 89 % of control | [9] 96 % of control | [10] 91 % of control

O=C(CC(=O)C(F)(F)F)c1csc2ccccc12
inactive: dose: 15.0 mg/kg/injection, schedule: Q01DX015 (ip), vehicle: other 108 % of control | dose: 25.0 mg/kg/injection, schedule: Q01DX009 (ip), vehicle: saline 92 % of control | dose: 25.0 mg/kg/injection, schedule: Q04DX003 (ip), vehicle: acetone 97 % of control | dose: 30.0 mg/kg/injection, schedule: Q01DX015 (ip), vehicle: other 94 % of control | dose: 50.0 mg/kg/injection, schedule: Q01DX009 (ip), vehicle: saline 92 % of control | dose: 50.0 mg/kg/injection, schedule: Q04DX003 (ip), vehicle: acetone 100 % of control | dose: 60.0 mg/kg/injection, schedule: Q01DX015 (ip), vehicle: other 97 % of control | [8] 95 % of control | dose: 100.0 mg/kg/injection, schedule: Q04DX003 (ip), vehicle: acetone 97 % of control | dose: 120.0 mg/kg/injection, schedule: Q01DX015 (ip), vehicle: other 94 % of control

C=C1CC2(OC1=O)C(=O)N(C)c1ccc(I)cc12 (stereo unspecified)
inactive: [12] 101 % of control | [13] 97 % of control | [5] 102 % of control

CC(=O)CP(=O)(O)O
inactive: dose: 100.0 mg/kg/injection, schedule: Q04DX002 (ip), vehicle: saline 97 % of control | dose: 200.0 mg/kg/injection, schedule: Q04DX002 (ip), vehicle: saline 94 % of control | dose: 400.0 mg/kg/injection, schedule: Q04DX002 (ip), vehicle: saline 94 % of control

CCCCCC(C)NCCOC(=O)c1ccc([N+](=O)[O-])cc1 (stereo unspecified)
inactive: dose: 75.0 mg/kg/injection, schedule: Q01DX001 (ip), vehicle: other 103 % of control | dose: 150.0 mg/kg/injection, schedule: Q01DX001 (ip), vehicle: other 103 % of control | dose: 300.0 mg/kg/injection, schedule: Q01DX001 (ip), vehicle: other 106 % of control

Cc1cccc(C)c1-c1c2ccccc2cc2ccccc12
inactive: dose: 100.0 mg/kg/injection, schedule: Q01DX009 (ip), vehicle: saline 95 % of control | dose: 100.0 mg/kg/injection, schedule: Q04DX003 (ip), vehicle: saline with Tween-80 96 % of control | dose: 200.0 mg/kg/injection, schedule: Q01DX009 (ip), vehicle: saline 93 % of control | dose: 200.0 mg/kg/injection, schedule: Q04DX003 (ip), vehicle: saline with Tween-80 96 % of control | dose: 400.0 mg/kg/injection, schedule: Q01DX009 (ip), vehicle: saline 87 % of control | dose: 400.0 mg/kg/injection, schedule: Q04DX003 (ip), vehicle: saline with Tween-80 93 % of control
